Test results: ChEMBL document CHEMBL1129016, “Synthesis and in vitro evaluation of 3-substituted-1-azaanthraquinones” (Bioorg Med Chem Lett, 1996)
In brackets after ≈: the same amount, converted by molar mass.

Experiments:
[1] = test system: MCF7; experiment: In vitro cytotoxic activity against subline resistant to doxorubicin (MCF-7/R) by using SRB assay after 72 hr of drug exposure; format: functional, cell-based; details: Homo sapiens, MCF7, 72 h
[2] = test system: MCF7; experiment: In vitro cytotoxic activity against human breast cancer cells (MCF-7) by using SRB assay after 72 hr of drug exposure; format: functional, cell-based; details: MCF7, 72 h
[3] = test system: SNU1; experiment: In vitro cytotoxic activity against SNU-1(stomach cancer cell) by using SRB assay after 72 hr of drug exposure; format: functional, cell-based; details: Homo sapiens, SNU1, 72 h
[4] = test system: SNU-354; experiment: In vitro cytotoxic activity against SNU-354(liver cancer cell) by using SRB assay after 72 hr of drug exposure; format: functional, cell-based; details: Homo sapiens, SNU-354, 72 h
[5] = Resistance index expressed as the ratio of IC50 of resistant cell line (MCF-7/R) to IC50 of sensitive cell line (MCF-7); format: functional

## CC(C)NC(=O)OCc1cnc2c(c1)C(=O)c1ccccc1C2=O
[1]
  IC50: > 100 µg/mL
[2]
  IC50: > 100 µg/mL
[3]
  IC50: > 20 µg/mL
[4]
  IC50: > 20 µg/mL

## CC(=O)OCc1cnc2c(c1)C(=O)c1ccccc1C2=O
[1]
  IC50: 49.9 µg/mL (≈ 177 µM)
[2]
  IC50: 6.7 µg/mL (≈ 23.8 µM)
[3]
  IC50: 8.4 µg/mL (≈ 29.9 µM)
[4]
  IC50: 11.8 µg/mL (≈ 42 µM)
[5]
  Resistance index: 7.4

## O=C1c2ccccc2C(=O)c2ncc(CBr)cc21
[1]
  IC50: 3.08 µg/mL (≈ 10.2 µM)
[2]
  IC50: 2.49 µg/mL (≈ 8.24 µM)
[3]
  IC50: 0.56 µg/mL (≈ 1.85 µM)
[4]
  IC50: 0.89 µg/mL (≈ 2.95 µM)
[5]
  Resistance index: 1.2

## Cc1cnc2c(c1)C(=O)c1ccccc1C2=O
[1]
  IC50: 69.1 µg/mL (≈ 309 µM)
[2]
  IC50: 18.3 µg/mL (≈ 82.1 µM)
[3]
  IC50: 13.9 µg/mL (≈ 62.3 µM)
[4]
  IC50: > 20 µg/mL
[5]
  Resistance index: 3.8

## O=C1c2ccccc2C(=O)c2ncc(CO)cc21
[1]
  IC50: 17.7 µg/mL (≈ 74.1 µM)
[2]
  IC50: 6.66 µg/mL (≈ 27.8 µM)
[3]
  IC50: 8.1 µg/mL (≈ 33.9 µM)
[4]
  IC50: 4.5 µg/mL (≈ 18.8 µM)
[5]
  Resistance index: 2.7

## O=C(Nc1ccccc1)OCc1cnc2c(c1)C(=O)c1ccccc1C2=O
[1]
  IC50: 57.3 µg/mL (≈ 160 µM)
[2]
  IC50: 4.58 µg/mL (≈ 12.8 µM)
[3]
  IC50: 14.9 µg/mL (≈ 41.6 µM)
[4]
  IC50: 15.2 µg/mL (≈ 42.4 µM)
[5]
  Resistance index: 12.5

## COc1cccc2c1C(=O)c1c(O)c3c(c(O)c1C2=O)C[C@@](O)(C(=O)CO)C[C@@H]3O[C@H]1C[C@H](N)[C@H](O)[C@H](C)O1 [DOXORUBICIN]
[3]
  IC50: 0.27 µg/mL (≈ 0.497 µM)
[4]
  IC50: 0.54 µg/mL (≈ 0.994 µM)
